# Literature values, collected in PMC6167001 (ACS Omega, 2018).
# What was measured:
# [1] = tested on: HIV-1 mutants bearing L76V; conditions: inclusion of L76V in mutants bearing three other resistance mutations
# [2] = target: PRL76V (HIV-1 protease with mutation L76V)
structure (smiles),measurement,setting,value
"Cc1cccc(C)c1OCC(=O)N[C@@H](Cc1ccccc1)[C@@H](O)C[C@H](Cc1ccccc1)NC(=O)[C@H](C(C)C)N1CCCNC1=O [Compound 2, lopinavir]",increase in resistance associated with L76V,[1],eightfold
"CC(C)(C)NC(=O)[C@@H]1C[C@@H]2CCCC[C@@H]2CN1C[C@@H](O)[C@H](Cc1ccccc1)NC(=O)[C@H](CC(N)=O)NC(=O)c1ccc2ccccc2n1 [Compound 6, saquinavir]",increase in susceptibility associated with L76V,[1],eightfold
COc1ccc(S(=O)(=O)N(C[C@H]2CCC(=O)N2)C[C@@H](O)[C@H](Cc2ccccc2)NC(=O)O[C@@H]2C[C@@H]3CCO[C@@H]3C2)cc1 [GRL-02031],increase in inhibition constant (Ki) for PRL76V in comparison to PRWT,[2],twofold
